Earlier results, collected in the PKSmart pharmacokinetics tables (Seal et al. 2025).

Assay: not given per row; by the article one of three: Lombardo et al. 2013, J Clin Pharmacol 53:178, doi 10.1177/0091270012440282; 'New Drugs at FDA', novel drug approvals for 2021 and 2022 (the article's reference 43); Yap, Li, Chen 2006, J Mol Graph Model 24:383, doi 10.1016
Details: human; in vivo
For `C=CC(=O)N1CC[C@H](n2nc(C#Cc3cc(OC)cc(OC)c3)c3c(N)ncnc32)C1`, the Vd is listed as 1.1 L/kg, the clearance is listed as 5.56 mL/min/kg and the half-life is listed as 2.9 h.
For `C[C@@H](O)C1C(=O)N2C(C(=O)O)=C(S[C@@H]3CNC(C(=O)N(C)C)C3)[C@H](C)[C@@H]12` (stereo partly specified), the clearance is given as 3.49 mL/min/kg.
In the case of `COCC(=O)Nc1c(I)c(C(=O)NC[C@H](O)CO)c(I)c(C(=O)N(C)C[C@H](O)CO)c1I`, the clearance is given as 1.53 mL/min/kg.
In the case of `CC(=O)C1CC[C@H]2[C@@H]3CC[C@H]4C[C@](C)(O)CC[C@]4(C)[C@H]3CC[C@]12C` (stereo partly specified), the half-life is listed as 34 h.
For `C=CC(=O)N1CCN(c2nc(=O)n(-c3c(C)ccnc3C(C)C)c3nc(-c4c(O)cccc4F)c(F)cc23)[C@@H](C)C1`, the Vd is listed as 3.52 L/kg and the clearance is listed as 7.28 mL/min/kg.
For `O=C1CC2(CCCC2)CC(=O)N1CCCCN1CCN(c2ncccn2)CC1`, the clearance is listed as 28.3 mL/min/kg.
For `[2H]C([2H])([2H])NC(=O)c1nnc(NC(=O)C2CC2)cc1Nc1cccc(-c2ncn(C)n2)c1OC`, the Vd is listed as 2.33 L/kg, the clearance is listed as 0.68 mL/min/kg and the half-life is listed as 10 h.
In the case of `CC(C)(ON=C(C(=O)CC1C(=O)N2C(C(=O)O)=C(C[n+]3ccccc3)CS[C@H]12)c1csc(N)n1)C(=O)[O-]` (stereo partly specified), the clearance is given as 1.88 mL/min/kg.
For `C=C/C=C/C[C@@H](C)[C@@H](O)C1C(=O)NC(CC)C(=O)N(C)CC(=O)N(C)C(CC(C)C)C(=O)NC(C(C)C)C(=O)N(C)C(CC(C)C)C(=O)NC(C)C(=O)NC(C)C(=O)N(C)C(CC(C)C)C(=O)N(C)C(CC(C)C)C(=O)N(C)C(C(C)C)C(=O)N1C` (stereo partly specified), the Vd is given as 35.9 L/kg, the clearance is given as 17.7 mL/min/kg and the half-life is given as 30 h.
For `C[C@H](NCCc1ccc(O)cc1)[C@H](O)c1ccc(O)cc1`, the clearance is given as 8.67 mL/min/kg.
For `CNCC[C@H](Oc1ccccc1C)c1ccccc1`, the clearance is given as 3.63 mL/min/kg.
For `CC1=C(/C=C/C(C)=C/C=C/C(C)=C/C(=O)Nc2ccc(O)cc2)C(C)(C)CCC1`, the clearance is given as 23.5 mL/min/kg.
In the case of `O=[P@@]1(N(CCCl)CCCl)NCCCO1`, the clearance is listed as 2.54 mL/min/kg.
In the case of `C[C@]1(Cn2ccnn2)C(C(=O)O)N2C(=O)C[C@@H]2S1(=O)=O` (stereo partly specified), the clearance is given as 2.91 mL/min/kg.
In the case of `CCNC[C@H](O)c1ccc(O)cc1`, the clearance is given as 13.6 mL/min/kg.
In the case of `CN[C@H](C)[C@H](O)c1ccccc1`, the clearance is listed as 7.33 mL/min/kg.
In the case of `CC[C@]1(C)CC(=O)NC1=O`, the clearance is listed as 0.19 mL/min/kg.
In the case of `CN1CCN(c2c(F)cc3c(=O)c(C(=O)O)cn4c3c2SCC4)CC1`, the clearance is listed as 0.57 mL/min/kg.
In the case of `CO[C@]1(NC(=O)Cc2cccs2)C(=O)N2C(C(=O)O)=C(COC(N)=O)CS[C@@H]21`, the clearance is given as 2.89 mL/min/kg.
In the case of `Nc1ccn(C[C@H](CO)OCP(=O)(O)O)c(=O)n1`, the clearance is given as 2.3 mL/min/kg.
For `COc1cc(Cc2cnc(N)nc2N)cc(OC)c1Br`, the clearance is given as 0.6 mL/min/kg.
In the case of `C[C@H](CC(c1ccccc1)c1ccccc1)NC(C)(C)C`, the clearance is listed as 0.95 mL/min/kg.
For `CO[C@]1(NC(=O)C(C(=O)O)c2ccc(O)cc2)C(=O)N2C(C(=O)O)=C(CSc3nnnn3C)CO[C@@H]21` (stereo partly specified), the clearance is given as 1.32 mL/min/kg.
For `N=C=N`, the clearance is listed as 20 mL/min/kg.
For `COc1ccc(-n2nccn2)c(C(=O)N2CCC[C@@]2(C)c2nc3c(C)c(Cl)ccc3[nH]2)c1`, the Vd is given as 0.52 L/kg and the half-life is given as 8 h.
In the case of `CC(=O)Oc1cc(C(F)(F)F)ccc1C(=O)O`, the clearance is given as 10.7 mL/min/kg.
In the case of `C[C@](O)(CS(=O)(=O)c1ccc(F)cc1)C(=O)Nc1ccc(C#N)c(C(F)(F)F)c1`, the clearance is given as 3.67 mL/min/kg.
For `CNS(=O)(=O)CCC1CCC2[N]CC(C3CCN(C)CC3)C2C1` (stereo unspecified), the clearance is listed as 6.35 mL/min/kg.
For `Nc1nc(NC2CC2)c2ncn([C@@H]3C=C[C@H](CO)C3)c2n1`, the clearance is given as 13.1 mL/min/kg.
For `COc1ccc(NC(=O)\C=C(C)/C=C/C=C(C)\C=C\C2=C(C)CCCC2(C)C)cc1`, the clearance is listed as 98.9 mL/min/kg.
In the case of `COc1cc2c(cc1OC)C(=O)C(CC1CCN(Cc3ccccc3)CC1)C2` (stereo unspecified), the clearance is given as 2.53 mL/min/kg.
For `C[C@@H](c1cc2ccccc2s1)N(O)C(N)=O`, the clearance is given as 7.14 mL/min/kg.
In the case of `Cc1ccc(C(=O)c2ccc(CC(=O)O)n2C)cc1`, the clearance is listed as 1.3 mL/min/kg.
In the case of `CCCCC1(CCCC)CS(=O)(=O)c2ccc(N(C)C)cc2[C@@H](c2ccc(OCc3ccc(C[N+]45CCN(CC4)CC5)cc3)cc2)[C@H]1O`, the half-life is given as 1.6 h.
For `CCN1CCC[C@@H]1CNC(=O)c1cc(S(=O)(=O)CC)ccc1OC`, the clearance is given as 5.71 mL/min/kg.
In the case of `CS(=O)(=O)c1ccc(Oc2cc(F)cc(C#N)c2)c2c1[C@H](O)[C@H](F)[C@@H]2F`, the Vd is listed as 2.17 L/kg, the clearance is listed as 2.03 mL/min/kg and the half-life is listed as 14 h.
In the case of `C[C@@H]1COc2c(N3CCN(C)CC3)c(F)c(C(=O)O)c3c(=O)ccn1c23`, the clearance is listed as 3.5 mL/min/kg.
For `CCC[C@H](C)[C@@]1(CC)C(=O)N=C(S)NC1=O`, the clearance is given as 3.02 mL/min/kg.
For `O=[P@@]1(NCCCl)OCCCN1CCCl`, the clearance is listed as 1.23 mL/min/kg.
For `Cc1ccc(NC(=O)C2CCCN(C(=O)c3c(C)cccc3F)[C@H]2c2ccc(NC3CCCC3)cc2)cc1C(F)(F)F` (stereo partly specified), the Vd is listed as 5.75 L/kg, the clearance is listed as 4.53 mL/min/kg and the half-life is listed as 97.6 h.
For `C1=C/COCc2cc(ccc2OCCN2CCCC2)Nc2nccc(n2)-c2cccc(c2)COC/1`, the Vd is listed as 3.82 L/kg, the clearance is listed as 0.58 mL/min/kg and the half-life is listed as 27.7 h.
For `CN(C)CCC(c1ccccc1)c1ccccn1` (stereo unspecified), the clearance is given as 2.14 mL/min/kg.
For `O=C(O)CN1C(=O)C(NC(CCc2ccccc2)C(=O)O)CCc2ccccc21` (stereo unspecified), the clearance is listed as 0.35 mL/min/kg.
In the case of `CCCC[C@](C)(O)C/C=C\[C@H]1C(CCCCCCC(=O)OC)C(=O)C[C@@H]1O` (stereo partly specified), the clearance is listed as 240 mL/min/kg.
For `Oc1ccc(CCNCCCCCCNCCc2ccccc2)cc1O`, the clearance is listed as 36 mL/min/kg.
In the case of `CCN1CC(C(=O)O)C(=O)c2ccc(-c3ccncc3)cc21` (stereo unspecified), the clearance is given as 2 mL/min/kg.
In the case of `COCc1c(C(=O)OC(C)C)ncc2[nH]c3ccc(OCc4ccccc4)cc3c12`, the clearance is listed as 13 mL/min/kg.
For `COc1ccccc1OCCNC[C@@H](O)COc1cccc2[nH]c3ccccc3c12`, the clearance is given as 8.7 mL/min/kg.
For `CCOC(=O)Nc1c[n+](N2CCOCC2)no1`, the clearance is listed as 9.52 mL/min/kg.
In the case of `CCOCn1c(Cc2ccccc2)c(C(C)C)c(=O)[nH]c1=O`, the clearance is listed as 28.6 mL/min/kg.
In the case of `COc1ccc2c3c1OC1C(=O)CC[C@@H]4[C@H](C2)N(C)CC[C@@]314` (stereo partly specified), the clearance is given as 8.82 mL/min/kg.
For `O=c1[nH]c(=O)n([C@@H]2CCCO2)cc1F`, the clearance is listed as 0.98 mL/min/kg.
